# “Also recorded” adds a separate entry of the source. Like-named read-outs stand apart in the source and are kept apart here.
# Assays:
# [1] = system: 5-HT1A; set-up: method as in ref 13-14 (SI); conditions: ref 13-14 (SI); cited from earlier work
# [2] = biological target: T1, mTAAR5 (Mus musculus, UniProt Q5QD14); experiment: BRET cAMP assay, antagonistic activity against TMA; format: cell-based; conditions: HEK293 cells cotransfected with mTAAR5 and cAMP BRET (EPAC) biosensor; against TMA 10 μM; 3 independent experiments
# T1 construct: rho tag (rhodopsin-derived tag) (N); expressed in transfected cells; host or cells: HEK293, transient transfection with lipofectamine 2000; plasmid a gift from Prof; Liberles
# T1 sequence (Q5QD14 1-337): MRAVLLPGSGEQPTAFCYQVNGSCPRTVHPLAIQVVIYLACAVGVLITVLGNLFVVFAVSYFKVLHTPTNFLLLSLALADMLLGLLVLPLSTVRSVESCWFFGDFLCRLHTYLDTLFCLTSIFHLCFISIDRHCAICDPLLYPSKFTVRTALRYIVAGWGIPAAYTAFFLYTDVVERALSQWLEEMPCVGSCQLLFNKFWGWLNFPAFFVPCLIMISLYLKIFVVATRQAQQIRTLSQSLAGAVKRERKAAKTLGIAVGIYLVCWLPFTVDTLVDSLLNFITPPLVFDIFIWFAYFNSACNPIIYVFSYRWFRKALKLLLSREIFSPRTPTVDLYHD
# Protocol: (§1) TAAR5 is a receptor coupled to a stimulatory G protein, and its activation evokes cAMP production. Therefore, HEK293 cells were cotransfected with mTAAR5 and cAMP BRET biosensor. Light emission changes according to the cAMP fluctuation.[60] TMA (10 μM) was used as a reference mTAAR5 agonist to evaluate the activity of the compounds throughout the BRET-based assay and tested at 10 μM for either agonistic or antagonistic activity.
# Human embryonic kidney 293cells (HEK293) were maintained in Dulbecco’s modified Eagle’s, high glucose, GlutaMAX^TM medium (Gibco^TM) supplemented with 10% 331 (v/v) of FBS and 1% penicillin/streptomycin at 37 °C in a humidified atmosphere at 95% air and 5% CO2. For the bioluminescence resonance energy transfer (BRET) experiments, cells were plated in 10 cm dishes 24 h prior to the transient transfection of 7 μg of rho-TAAR5 (a generous gift from Prof. Liberles) and 7 μg of EPAC using lipofectamine 2000 (Invitrogen). Five h after transfection, cells were plated in poly-D-lysinecoated 96-well microplates (well-assay white plate with clear bottom, Greiner) at a density of 70,000 cells per well in Opti-MEM (Gibco^TM) and then cultured for an additional 24 h. The serotonergic ligand library was purchased from Enzo (SCREEN-WELL Serotonergic ligand library).
# BRET experiments were performed as described previously.[60] All the compounds were tested at the initial concentration of 10 μM. For the evaluation of the agonistic activity, the plate was read immediately after the addition of the compounds for approximately 20 min. For the evaluation of the antagonistic activity, the compounds were added 5 min before the addition of the control TAAR5 agonist, TMA, and read for approximately 20 min. For the ones that were active, a concentration–response assessment was performed by using different concentrations of the antagonist. TMA is the standard mTAAR5 agonist and induces an increase in cAMP levels. The activity of a putative mTAAR5 antagonist was evaluated in its ability to decrease or abolish the increase of the cAMP levels induced by TMA. The IC50 was then calculated by measuring the effect of the compounds against the effect of TMA at 10 μM. Readings were collected using Tecan Infinite instrument that allows the sequential signals integration detected in the 465 to 505 nm and 515 to 555 nm windows. EPAC BRET biosensor was used to monitor cAMP levels. BRET ratio is plotted in the graphs. Increased cAMP specifically reflects an increase in the BRET ratio. The activity of an antagonist was evaluated in terms of the ability to counteract the TMA increase in the BRET ratio. The acceptor/donor ratio was calculated as previously described.[108] […] The data are representative of at least 3 independent experiments and are expressed as means ± SEM.
# [3] = biological target: 5-HT1F; set-up: method as in ref 6, 11-12 (SI); conditions: 11-12 (SI); cited from earlier work
# [4] = system: 5-HT1E; set-up: method as in ref 6, 11-12 (SI); conditions: 11-12 (SI); cited from earlier work
# [5] = biological target: 5-HT1A; conditions: cited from earlier work
# [6] = biological target: T1, mTAAR5; conditions: cited from earlier work; for Potency pIC50 (negative log of IC50, modulating cAMP levels): mTAAR5 antagonists; for Potency pEC50 (negative log of EC50, modulating cAMP levels): mTAAR5 agonist
# [7] = system: empty vector CTRL cells; experiment: BRET cAMP assay in cells without mTAAR5 (empty vector); format: cell-based, human; conditions: HEK-293 cells transfected with EPAC cAMP BRET biosensor and empty vector; listed as TMA
# Protocol: as §1
# Figure S6. Effect of TMA on cAMP level is mediated by mTAAR5. HEK-293 cells were transfected with
# EPAC cAMP BRET biosensor with mTAAR5 or empty vector.
# calculated as mean ± SEM of 3 independent experiments.
# (1 picture or pasted object on this page, not shown here)
# [8] = biological target: T1, mTAAR5; experiment: BRET cAMP assay, agonistic activity; format: cell-based; conditions: HEK-293 cells transfected with EPAC cAMP BRET biosensor and mTAAR5; compared to saline
# Protocol: as §1
# Human embryonic kidney 293cells (HEK293) were maintained in Dulbecco’s modified Eagle’s, high glucose, GlutaMAX^TM medium (Gibco^TM) supplemented with 10% 331 (v/v) of FBS and 1% penicillin/streptomycin at 37 °C in a humidified atmosphere at 95% air and 5% CO2. […]
# BRET experiments were performed as described previously.[60] […] For the evaluation of the agonistic activity, the plate was read immediately after the addition of the compounds for approximately 20 min. For the evaluation of the antagonistic activity, the compounds were added 5 min before the addition of the control TAAR5 agonist, TMA, and read for approximately 20 min. […] The activity of a putative mTAAR5 antagonist was evaluated in its ability to decrease or abolish the increase of the cAMP levels induced by TMA. […] Readings were collected using Tecan Infinite instrument that allows the sequential signals integration detected in the 465 to 505 nm and 515 to 555 nm windows. […]
# [9] = biological target: T1, mTAAR5; set-up: method as in PMID 29713997; conditions: training set inactives; cited from earlier work
# [10] = system: 5-HT4; conditions: cited from earlier work
compound,measurement,setting,value
"CCCN(CCC)C1CCc2cccc(O)c2C1 (centres unmarked) [Compound 6, 7-(dipropylamino)-5,6,7,8-tetrahydronaphthalen-1-ol]",5-HT1A pEC50,[1],7.24
same,IC50,[2],3.8 µM
"CN1CCC(c2c[nH]c3ccc(O)cc23)CC1 [Compound 5, 3-(1-methylpiperidin-4-yl)-1H-indol-5-ol]",5-HT1F pKi,[3],8.15
same,IC50,[2],2.7 µM
same,5-HT1E pEC50,[4],8.16
COc1ccccc1OCCNCC1COC(c2ccccc2)(c2ccccc2)O1 (centres unmarked) [Compound 4],5-HT1A pKi,[5]; ref 5 (SI),9.22
same,"Potency pIC50 (negative log of IC50, modulating cAMP levels)",[6],pIC50: 3.54
"CN(C)C [Compound 1, Trimethylamine]",effect on cAMP level in the absence of mTAAR5,[7],not in empty vector CTRL cells; also recorded: no cAMP fluctuation
same,"Potency pEC50 (negative log of EC50, modulating cAMP levels)",[6],pEC50: 5.49
same,effect on cAMP level with mTAAR5 expressed,[8],increases cAMP levels
N-[2-(piperidinylamino)ethyl]-4-iodobenzamide,activity at mTAAR5 in previous HTS campaigns,[9],inactive
"COc1cc(N)c(Cl)cc1C(=O)OCCCN1CCCCC1 [Compound 7, 3-(piperidin-1-yl)propyl 4-amino-5-chloro-2-methoxybenzoate]",IC50,[2],4.7 µM
same,5-HT4 pIC50,[10]; ref 15-16 (SI),6.31
"COc1ccccc1N1CCN(CC2CCC(c3ccccc3)(c3ccccc3)O2)CC1 (centres unmarked) [Compound 3, 1-[(5,5-Diphenyloxolan-2-yl)methyl]-4-(2-methoxyphenyl)piperazine]",5-HT1A pKi,[5]; ref 10 (SI),7.64
same,"Potency pIC50 (negative log of IC50, modulating cAMP levels)",[6],pIC50: 4.36
CCN(CC)CCNC(=O)c1cc(Cl)c(N)cc1OC [Metoclopramide],activity at mTAAR5 in previous HTS campaigns,[9],inactive
"C[N+](C)(C)CCC(=O)c1cccc2ccccc12 [Compound 2, Trimethyl-(3-naphthalen-1-yl-3-oxopropyl)azanium]","Potency pEC50 (negative log of EC50, modulating cAMP levels)",[6],pEC50: 5.82
"CCN(CC)CCOC(=O)c1cc(Cl)c(N)cc1OC [Compound 8, 2-(diethylamino)ethyl-4-amino-5-chloro-2-methoxybenzoate]",IC50,[2],13 µM
same,5-HT4 pIC50,[10]; ref 17 (SI),6.11
CCCN(CCC)[C@@H]1CCc2c(OC)cccc2[C@@H]1C [(+)-UH 232],activity at mTAAR5 in previous HTS campaigns,[9],inactive
